Columns and labels:
[1] = molecular target: Met (hepatocyte growth factor receptor), endogenous in human HeLa cells (human) (UniProt P08581); experiment: cell-based or functional assay
Met [2] = experiment: Effect of proteasome and lysosome inhibitors on In1B-dependent degradation of Met; format: cell-based, human; conditions: HeLa cells pre-treated with inhibitor before addition of In1B; anti-Met immunoblot
Procedure: (A) Hela cells were treated (+) with […] epoximycin, […] clasto-lactacystin-β-lactone (lactone), 20 mM ammonium chloride, or 5 μM bafilomycin A1 (Baf-A1) for 90 minutes before addition of In1B. Cell extracts were loaded in a SDS-PAGE gel followed by immunoblot with anti-Met antibody. […] (B) Surface exposed proteins of Hela cells were biotinylated (Biot +) before addition of In1B. In1B was added for two minutes to allow internalization of Met, then cells were washed and biotin was removed (see methods and text) from the surface. Samples were precipitated with neutravidin agarose and blotted against Met.
Mono-ubiquitination is the signal that induces endocytosis of RTKs after ligand binding and usually drives cargo proteins to lysosomal degradation (6, 17, 34). To study whether In1B-dependent degradation of Met is a proteasomal or a lysosomal event, HeLa cells were treated with clasto-p-lactacystin lactone or epoximycin, two inhibitors of proteasome degradation, and ammonium chloride or bafilomycin A1, two inhibitors of lysosome degradation, […] before the addition of In1B. Cellular extracts were then immunoblotted using anti Met antibodies (FIG. 4).

[3] = system: poly-ubiquitinated proteins; experiment: FK1 functionality test: poly-ubiquitin immunoblot of HeLa cells treated with proteasome inhibitors; format: cell-based, human; conditions: 60 minutes treatment, versus non-treated
Procedure: (A) In1B was added (+) to HeLa cells. Lysates were immunoprecipitated using C12 rabbit polyclonal anti-Met antibody and blotted against Met (DL21 mAb). The same membrane was stripped and blotted against ubiquitin using FK1, a mAb that recognizes poly-ubiquitinated proteins, or P4D1, a mAb that recognizes both poly- and mono-ubiquitinated proteins. (B) Total cell extracts from Hela cells treated with […] epoximycin (lane 2) or […] clasto-lactacystin-β-lactone (lane 3) for 60 minutes, or non-treated cells (lane 1) were blotted against poly-ubiquitin (FK1) or actin. (C) ubiquitin ladder was blotted with FK1 or P4D1. The number of ubiquitin modules is indicated on the right. The molecular weight of protein markers is shown in the left of the panels, in kDa. In D and E, Hela Cells were transfected with siRNA to knock down Cbl expression (RNAi), or with RNA control (Control). (D) Cellular Cbl and actin were detected by immunoblotting. […]
The rapid degradation of Met after In B contact is different from the HGF-dependent degradation, which has been reported to take two hours (19-21), indicating differences in the biochemistry of the process. […] Samples from HeLa cells treated with In1B (5 nM) were immunoprecipitated using an anti-Met antibody, and then Met-immunoprecipitates were analyzed with an anti Met mAb (FIG. 3A1), FK1 (FIG. 3A2) or P4D1 (FIG. 3A3). […]

Met [4] = molecular target: Met (Homo sapiens, UniProt P08581); conditions: comparison with In1B; cited from earlier work
Chain of Met (Homo sapiens, UniProt P08581) (P08581 25-1390): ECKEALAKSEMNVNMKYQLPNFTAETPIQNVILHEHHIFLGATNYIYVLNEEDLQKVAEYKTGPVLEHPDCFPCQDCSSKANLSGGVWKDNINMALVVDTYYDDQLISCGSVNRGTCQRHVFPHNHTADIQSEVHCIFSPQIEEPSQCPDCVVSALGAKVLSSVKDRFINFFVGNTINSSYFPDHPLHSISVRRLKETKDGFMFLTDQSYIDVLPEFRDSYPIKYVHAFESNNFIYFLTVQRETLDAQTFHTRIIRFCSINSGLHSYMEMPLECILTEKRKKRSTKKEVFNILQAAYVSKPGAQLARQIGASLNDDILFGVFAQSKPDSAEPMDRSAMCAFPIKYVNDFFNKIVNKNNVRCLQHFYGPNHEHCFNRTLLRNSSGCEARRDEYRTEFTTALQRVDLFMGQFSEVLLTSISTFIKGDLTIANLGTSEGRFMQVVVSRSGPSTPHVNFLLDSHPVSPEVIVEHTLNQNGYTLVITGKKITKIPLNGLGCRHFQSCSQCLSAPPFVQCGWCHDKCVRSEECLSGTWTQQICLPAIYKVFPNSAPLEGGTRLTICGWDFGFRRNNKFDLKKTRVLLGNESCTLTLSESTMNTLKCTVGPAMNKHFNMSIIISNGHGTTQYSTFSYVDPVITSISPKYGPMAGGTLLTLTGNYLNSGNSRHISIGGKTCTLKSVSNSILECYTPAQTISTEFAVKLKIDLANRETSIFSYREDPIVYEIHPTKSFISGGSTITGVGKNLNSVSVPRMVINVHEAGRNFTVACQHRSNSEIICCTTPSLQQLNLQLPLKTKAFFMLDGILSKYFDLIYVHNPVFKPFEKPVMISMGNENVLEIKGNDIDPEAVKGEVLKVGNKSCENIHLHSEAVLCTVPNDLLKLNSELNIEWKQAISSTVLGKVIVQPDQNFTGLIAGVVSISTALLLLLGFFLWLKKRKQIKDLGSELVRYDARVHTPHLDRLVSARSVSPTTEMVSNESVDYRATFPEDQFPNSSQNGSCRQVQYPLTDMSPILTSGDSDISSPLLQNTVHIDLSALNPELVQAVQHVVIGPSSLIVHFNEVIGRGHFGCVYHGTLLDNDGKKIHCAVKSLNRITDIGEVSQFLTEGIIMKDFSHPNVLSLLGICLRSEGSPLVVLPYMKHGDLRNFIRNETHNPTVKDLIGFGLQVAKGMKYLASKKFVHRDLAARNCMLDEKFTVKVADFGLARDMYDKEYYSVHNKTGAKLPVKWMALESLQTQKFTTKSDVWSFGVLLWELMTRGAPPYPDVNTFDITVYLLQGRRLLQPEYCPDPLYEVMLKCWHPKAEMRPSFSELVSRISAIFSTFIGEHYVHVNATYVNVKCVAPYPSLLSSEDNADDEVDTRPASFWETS

Met [5] = experiment: Effect of cycloheximide on In1B-dependent degradation and de-novo synthesis of Met; format: cell-based, human; conditions: HeLa cells pre-treated 90 minutes before In1B
Procedure: FIG. 2 depicts the degradation and de-novo synthesis of Met. (A) HeLa cells were treated at the indicated times with 5 nM In1B and cellular extracts were blotted against Met. (B) Cells were treated as in A, but blotted at the same time with anti-Met antibody and Streptavidin. Stars indicate nonspecific bands recognized by streptavidin and the square indicates Met. (C) The experiment was performed as in A, but cells were pre-treated with […] of cycloheximide for 90 minutes before addition of In1B. (D) This experiment was performed as in A, but In1B was removed three minutes after it was added. Actin is shown as the loading control in A, C and D. The molecular mass of the markers is indicated in kDa.
In order to determine whether de-novo synthesis of Met occurred after In1B dependent-degradation, HeLa cells were pre-treated with cycloheximide, which inhibits protein synthesis, for 90 minutes before exposure to In1B.

Chain of Met (hepatocyte growth factor receptor), endogenous in human HeLa cells (human) (P08581 25-1390): as above

For “In1B (internalin B) of Listeria monocytogenes, purified soluble protein (ligand)”, the Met phosphorylation (blot against phospho-tyrosine) [1] was 2 min, the kinetics of In1B-dependent ubiquitination of Met [1] was 2 min and the minimal amount of In1B necessary to trigger Met ubiquitination [1] was 1.75 nM.
In the case of CC(C)[C@H](O)[C@@]12NC(=O)[C@H](C)[C@@H]1OC2=O [clasto-lactacystin-β-lactone], the “effect of inhibitor on In1B-dependent degradation of Met” value (from here on “effect of inhibitor”) (Met [2]) is reported as “did not inhibit” and the “poly-ubiquitin (FK1) signal in cells treated with proteasome inhibitor” value [3] is reported as “stronger signals”.
In the case of “HGF: Met ligand (hepatocyte growth factor)”, the “time needed for a similar rate of Met degradation after activation with HGF” value (Met [4]) is given as “two to five and two”.
In the case of CC[C@H](C)[C@H](NC(=O)[C@H]([C@@H](C)CC)N(C)C(C)=O)C(=O)N[C@H](C(=O)N[C@@H](CC(C)C)C(=O)[C@@]1(C)CO1)[C@@H](C)O [epoximycin], the “effect of inhibitor” value (Met [2]) is reported as “did not inhibit” and the “poly-ubiquitin (FK1) signal in cells treated with proteasome inhibitor” value [3] is reported as “stronger signals”.
With C[C@@H]1C[C@@H]([C@H](O)CC2CC(=O)NC(=O)C2)C(=O)[C@@H](C)C1 [cycloheximide] the “effect of cycloheximide on In1B-dependent degradation of Met” value (Met [5]) was “did not prevent” and the “effect of cycloheximide on de-novo synthesis of Met after In1B” value (Met [5]) was “strongly hampered”.
For CO/C1=C\C(C)=C\[C@@H](C)[C@@H](O)[C@@H](C)C/C(C)=C/C=C/[C@H](OC)[C@@H]([C@@H](C)[C@@H](O)[C@H](C)[C@@]2(O)C[C@@H](O)[C@H](C)[C@@H](C(C)C)O2)OC1=O [bafilomycin A1], the “effect of inhibitor” value (Met [2]) was “significantly protected Met from degradation”.
With Cl.N [ammonium chloride] the “effect of inhibitor” value (Met [2]) was “significantly protected Met from degradation”.

From patent US20060217308A1, “Compositions for the treatment of tumor pathologies, comprising internalin B (ln1B) of Listeria monocytogene protein or a fragment thereof” (priority 2005, published 2006)
